In US4161520A, “Method of treating hypertension” (priority 1976, dated 1979):

Experiments:
[1] = test system: DOCA-Na. rat; experiment: Comparative antihypertensive activity of polyether ionophores in the DOCA-Na rat (Example 3, Table III); assay type: in vivo; settings: oral, five-day period, daily dose 1/100 of oral LD50 up to 10 mg/kg/day; for AHR (Subacute antihypertensive ratio): bromolasalocid as standard reference; for DURATION OF EFFECT: monitored until return to pre-drug levels
Experimental: Using bromolasalocid as a standard for comparison, a number of polyether ionophores were tested for antihypertensive activity. The tests were conducted utilizing single oral dosages in the DOCA-Na. rat over a five-day period with dosing discontinued thereafter. Blood pressure monitoring was carried out for the five-day period and daily after cessation of dosing until blood pressure returned to pre-drug levels. […] The daily dosage was calculated by using one-one hundredth (1/100) of the oral (per os) toxicity (LD50) up to a maximum of 10 mg/kg/day. The antihypertensive activity expressed as AHR (Subacute antihypertensive ratio) was calculated using bromolasalocid as the standard reference (Table III).

[2] = Oral (per os) toxicity (LD50); assay type: in vivo

COC1CCC(OC2C(C)C(O)(C(C)C(=O)O)OC(CC3CC(OC)C(C)C4(O3)OC(C)(C3CCC(C5CCC(C6OC(C)(O)C(C)C(OC)C6C)O5)O3)C(OC)C4C)C2(C)OC)OC1C (stereo not shown) [A-204]
ONSET TO MAX. RESPONSE [1]: 4 days | AHR (Subacute antihypertensive ratio) [1]: 86.6 | DURATION OF EFFECT [1]: 5 days | LD50 [2]: 14 mg/kg

CNc1ccc2oc(C[C@H]3O[C@@]4(CC[C@H]3C)O[C@H]([C@H](C)C(=O)c3ccc[nH]3)[C@H](C)C[C@H]4C)nc2c1C(=O)O [A-23187]
ONSET TO MAX. RESPONSE [1]: 4 days | AHR (Subacute antihypertensive ratio) [1]: 0.93 | DURATION OF EFFECT [1]: 10 days | LD50 [2]: > 1000 mg/kg

CO[C@@H]1C[C@@H](C[C@H]2CC[C@H](C)[C@H]([C@@H](C)C(=O)O)O2)O[C@]2(O[C@](C)([C@H]3CC[C@@](C)([C@@H]4O[C@@H]([C@H]5O[C@@](O)(CO)[C@H](C)C[C@@H]5C)C[C@@H]4C)O3)C[C@H]2C)[C@@H]1C [NIGERICIN, Nigericin]
ONSET TO MAX. RESPONSE [1]: 3 days | AHR (Subacute antihypertensive ratio) [1]: 4.0 | DURATION OF EFFECT [1]: 9 days | LD50 [2]: 190 mg/kg

CC/C(=C\C=C\[C@@H]1C=C[C@@H]2[C@@H](CC)CC[C@H]2[C@@H]1C(=O)c1ccc[nH]1)[C@@H]1O[C@@H]([C@@H](C)C(=O)O)CC[C@@H]1C [X-14547A]
ONSET TO MAX. RESPONSE [1]: 2 days | AHR (Subacute antihypertensive ratio) [1]: 0.58 | DURATION OF EFFECT [1]: 3 days | LD50 [2]: 129 mg/kg

BROMOISOLASALOCID
ONSET TO MAX. RESPONSE [1]: 2 days | AHR (Subacute antihypertensive ratio) [1]: 0.85 | DURATION OF EFFECT [1]: 8 days | LD50 [2]: > 1000 mg/kg

Lysocellin
ONSET TO MAX. RESPONSE [1]: 2 days | AHR (Subacute antihypertensive ratio) [1]: 2.08 | DURATION OF EFFECT [1]: 3 days | LD50 [2]: 225 mg/kg

Monensin
ONSET TO MAX. RESPONSE [1]: 2 days | AHR (Subacute antihypertensive ratio) [1]: 7.2 | DURATION OF EFFECT [1]: 9 days | LD50 [2]: 250 mg/kg
